The values below come from article PMC9611540, “PEGylation of the antimicrobial peptide LyeTx I-b maintains structure-related biological properties and improves selectivity” (Frontiers in Molecular Biosciences, 2022).

In series [1] the test system is S. aureus ISOL_1 (multidrug-resistant isolate). In kind it is cell-based, Staphylococcus aureus. The conditions noted are these: for MIC: S. aureus ISOL_1, microdilution plates, Mueller Hinton, 10^4 bacterial cells per well, peptides 32 to 0.25 μM, triplicate. The source says: (§1) Escherichia coli (ATCC 25922), Staphylococcus aureus (ATCC 33591), and three multidrug-resistant isolates (two E. coli and one S. aureus) were provided by Laboratory of Oral Microbiology and Anaerobes, Department of Microbiology, Institute of Biological Sciences, Federal University of Minas Gerais. Renal epithelial cells of the African green monkey (Cercopithecus aethiops) (VERO, ATCC CCL-81) were provided by the Federal University of Sao Joao del-Rei (UFSJ).
(§2) In order to determine MIC values of the PEGylated and the non-PEGylated peptides, bacterial isolates were cultured in TSA. After incubation for 24 h, at 37°C, under aerobic conditions, colonies were collected using an inoculation loop and transferred to saline solution (0.9% m/v NaCl). The inoculums were checked in a spectrophotometer at 600 nm; colonies were added until an absorbance corresponding to 1.5 × 10^8 cells · mL^−1 was obtained. Then, a 150-fold dilution was performed to achieve a concentration of 1 × 10^6 cells · mL^−1. MIC assays were performed in microdilution plates employing inoculums of 10^4 bacterial cells per well and concentrations of peptides ranging from 32 to 0.25 μM. All analyses were performed in triplicate. Positive (MH + bacterial inoculum) and negative (MH and MH + saline solution) controls were included in each batch of tests.
(§3) The specific values of molar peptide concentration used in this work were estimated according to the method described by [Schmid (2001)].

Series [2] deals with E.coli ISOL_11 (multidrug-resistant isolate). Type of series: cell-based, Escherichia coli. The conditions noted are these: for MIC: E. coli ISOL_11, microdilution plates, Mueller Hinton, 10^4 bacterial cells per well, peptides 32 to 0.25 μM, triplicate.
Text: as §1, §2, §3

Series [3] relates to E.coli ISOL_10 (multidrug-resistant isolate). Type of series: cell-based, Escherichia coli. Particulars: microdilution plates, Mueller Hinton, 10^4 bacterial cells per well, peptides 32 to 0.25 μM, triplicate.
Text: as §1, §2, §3

Series [4] relates to Escherichia coli (ATCC 25922). Type of series: cell-based. The conditions noted are these: for MIC: E. coli ATCC 25922, microdilution plates, Mueller Hinton, 10^4 bacterial cells per well, peptides 32 to 0.25 μM, triplicate.
Text: as §1, §2, §3

Series [5] has as its system Staphylococcus aureus (ATCC 33591). In kind it is cell-based. Particulars: for MIC: S. aureus ATCC 33591, microdilution plates, Mueller Hinton, 10^4 bacterial cells per well, peptides 32 to 0.25 μM, triplicate.
Text: as §1, §2, §3

For series [6], the system named is trypsin. Put plainly: Proteolytic degradation assay, RP-HPLC. In kind it is in vitro ADME. The conditions noted are these: 50 μM peptide, enzyme:substrate 1:50 (w/w), 10 mM phosphate buffer pH 8.0, 37°C, up to 24 h, RP-HPLC C18, UV 215 nm. How it is done:
(§4) The enzymes used in the experiments were trypsin and proteinase K. Enzyme solutions were prepared a few minutes before the experiments and contained 1.0 µM enzyme in 10 mM phosphate buffer at pH 8.0 for activation. Comparative proteolysis experiments between LyeTx I-b and LyeTx I-bPEG were performed by digesting the peptide solution (50 μM) with the enzyme solutions incubated at 37°C at an enzyme:substrate ratio of 1:50 (w/w) for trypsin and 1:50 (w/w) for proteinase K for 24 h. […] After inactivation, aliquots of 50 µL were injected into a Varian™ chromatograph (Varian, Inc. Corporate Headquarters, Palo Alto, CA, United States), model Pro Star 315, with ultraviolet detector, model Pro Star 335, using a Vydac™ 218 TP C18 (250 × 4.6 mm) reverse phase column. Chromatographic analyses were performed using a gradient of deionized water containing 0.1% TFA and acetonitrile containing 0.08% TFA. Samples were detected at 215 nm under a flow of 0.80 mL · min^−1 for 45 min.

Series [7] has as its target proteinase K (Parengyodontium album, UniProt P06873). Put plainly: Proteolytic degradation assay, RP-HPLC. Type of series: in vitro ADME. The conditions noted are these: 50 μM peptide, enzyme:substrate 1:50 (w/w) or 1:25 (w/w), 10 mM phosphate buffer pH 8.0, 37°C, up to 24 h, RP-HPLC C18, UV 215 nm. On the procedure:
as §4

Sequence of proteinase K (P06873 106-384): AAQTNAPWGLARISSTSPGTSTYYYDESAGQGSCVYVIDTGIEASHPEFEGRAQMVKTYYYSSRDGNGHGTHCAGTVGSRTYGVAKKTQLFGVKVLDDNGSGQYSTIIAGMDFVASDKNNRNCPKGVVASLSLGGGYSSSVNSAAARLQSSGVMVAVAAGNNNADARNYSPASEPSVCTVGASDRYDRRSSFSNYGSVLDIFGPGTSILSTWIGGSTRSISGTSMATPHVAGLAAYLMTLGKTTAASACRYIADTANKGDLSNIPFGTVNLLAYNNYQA

“Ac-IWLTALKFLGKNLGKLAKQQCAKL-NH2 [LyeTx I-bcys]”: the MIC in series [1] turned out to be 2.0 µM; in series [2], 1.0 µM; in series [3], 1.0 µM; in series [4], 1.0 µM; in series [5], 2.0 µM.
As for “Ac-IWLTALKFLGKNLGKLAKQQLAKL-NH2 [LyeTx I-b]”, the “Proteolytic degradation by trypsin” value in series [6] is given as “almost completely degraded after 6 h”. The “Proteolytic degradation by proteinase K” value in series [7] is given as “almost completely degraded after 6 h”. Moreover, the minimum inhibitory concentration (MIC) is 2.0 µM in series [1]; 1.0 µM in series [2]; 1.0 µM in series [3]; 1.0 µM in series [4]; 2.0 µM in series [5]. Also, the “Selectivity index (SI)” value was 0.48 in series [1] (S. aureus ISOL_1 versus VERO cells (CC50, MTT, 24 h)); 0.96 in series [2] (E. coli ISOL_11 versus VERO cells (CC50, MTT, 24 h)); 0.96 in series [4] (E. coli ATCC 25922 versus VERO cells (CC50, MTT, 24 h)); 0.48 in series [5] (S. aureus ATCC 33591 versus VERO cells (CC50, MTT, 24 h)).
